Measured values published in article PMC4418468 (BioTechniques, 2009).

Biological target: CXCR7 (Homo sapiens, UniProt P25106)
Assay: competition of CXCL12-Gaussia luciferase binding to intact cells at […] °C
Assay type: cell-based

CXCR7, sequence (P25106 whole entry): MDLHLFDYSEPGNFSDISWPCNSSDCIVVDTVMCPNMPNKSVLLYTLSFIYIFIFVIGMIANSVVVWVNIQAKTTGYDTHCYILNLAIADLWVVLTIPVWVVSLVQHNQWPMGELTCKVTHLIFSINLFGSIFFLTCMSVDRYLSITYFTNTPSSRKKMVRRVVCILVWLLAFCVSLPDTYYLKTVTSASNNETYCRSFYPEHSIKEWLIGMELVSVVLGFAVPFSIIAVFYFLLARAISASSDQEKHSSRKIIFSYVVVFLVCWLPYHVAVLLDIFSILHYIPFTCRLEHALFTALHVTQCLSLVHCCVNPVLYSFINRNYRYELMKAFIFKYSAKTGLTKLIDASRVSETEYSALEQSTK

EC50 [nM]	Substance
~18	CCX733
~250	CCX754
